Data: paper PMC8954547, “Nonpeptidic Z360-Analogs Tagged with Trivalent Radiometals as Anti-CCK2R Cancer Theranostic Agents: A Preclinical Study” (Pharmaceutics, 2022)
Several values for one entry are separate records, joined by “and”; a condition that tells them apart may be missing. Equal entries are not always repeated.

What was measured:
[1] = Radioligand stability in mice (radio-HPLC of blood and urine); assay type: in vivo; conditions: mice blood collected 5 min pi; mean ± SD
Method in brief: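 Male Swiss albino mice (n=3) given 2.5–3 nmol radioligand i.v. via tail vein in saline/EtOH 9/1. Blood at 5 min and urine at 30 min pi, EDTA-treated on ice, MeCN-deproteinised, analysed by radio-RP-HPLC; value is mean percent intact radioligand ± SD.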

[2] = system: SCID mice bearing twin HEK293-CCK2i4svR and wtHEK293 tumors; experiment: Biodistribution in SCID mice bearing twin HEK293-CCK2i4svR and wtHEK293 xenografts; assay type: in vivo
Method in brief: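 Uptake is expressed as %IA/g (mean ± SD, n = 4) from gamma counting of blood, organs and tumours collected at set times: 1, 4 and 24 h pi for ^67Ga, 4 and 24 h for ^111In (±gelofusine), 4–96 h for ^177Lu. Radioligands were given iv at 7–40 pmol to SCID mice bearing twin CCK2i4svR-transfected and wild-type HEK293 xenografts.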

[3] = system: HEK293-CCK2i4svR and wtHEK293 xenografts; experiment: SPECT/CT of HEK293-CCK2i4svR and wtHEK293 xenografts; assay type: in vivo, mice; conditions: 4 h and 24 h pi
Method: For SPECT/CT imaging, six mice bearing twin HEK293-CCK2i4svR and wtHEK293 tumors were injected in the tail vein with a bolus containing [^111In]In-GAS1/2/3 (100 μL, 9–12 MBq associated with 3 nmol total injected analog in-vehicle: saline/EtOH 9/1 v/v). Mice were euthanized at 4 h and 24 h pi. Tomographic SPECT/CT imaging was performed with the y-CUBE/x-CUBE systems (Molecubes, Belgium). The SPECT system is based on monolithic NaI detectors attached to SiPMs, with a 0.6 mm intrinsic resolution. The CT system is based on a structured CMOS detector of CsI with pixels of 75 µm and operates between 35–80 kVp, 10–500 µA tube current, with a 33 µm fixed focal spot size. SPECT scans were acquired 4 h pi and 24 h pi, with a 40–50 min duration protocol based on the injected activity, and each SPECT scan was succeeded by a CT scan, following General-Purpose protocol under 50 kVp, for co-registration purposes. SPECT images were reconstructed using the MLEM reconstruction method with a 250 µm voxel size and 500 iterations. CT images were reconstructed using the ISRA reconstruction method with a 100 µm voxel size.
Images were exported and post-processed on VivoQuant software, version 4.0 (Invicro, Boston). A smoothing median filter (0.6 mm, spherical window) was applied to the images, and the bladder was removed for consistency purposes. Normalization of images was performed (i.e., all images having the same color scale range values) to achieve a direct visual comparison between the different groups.

[4] = 4 h + Gelo (Gelofusine-treated mice)
[5] = 24 h + Gelo (Gelofusine-treated mice)

CC(C)(C)C(=O)CN1C(=O)[C@H](NC(=O)Nc2cccc(C(=O)NCCOCCOCCOCCNC(=O)[C@@H](CCC(=O)O)NC(=O)CCC(C(=O)[O-])N3CCN(CC(=O)[O-])CCN(CC(=O)[O-])CC3)c2)CN(C2CCCCC2)c2ccccc21.[111In+3] (stereo partly drawn) [[^111In]In-GAS2]
Intact radioligand in blood [1]: 73.1 ± 1.8% and 73.1 ± 1.8 (3) % and 98.3 ± 0.3 (3) %
Biodistribution, Blood [2, 4]: 6.29 ± 1.08 %IA/g
Biodistribution, CCK2i4svR(+) Tumor [2, 4]: 7.67 ± 0.61 %IA/g
Biodistribution, CCK2i4svR(-) Tumor [2, 4]: 1.72 ± 0.30 %IA/g
Biodistribution, Femur [2, 4]: 0.99 ± 0.17 %IA/g
Biodistribution, Heart [2, 4]: 1.42 ± 0.21 %IA/g
Biodistribution, Intestines [2, 4]: 9.48 ± 0.99 %IA/g
Biodistribution, Kidneys [2, 4]: 21.90 ± 3.97 %IA/g
Biodistribution, Liver [2, 4]: 4.56 ± 0.49 %IA/g
Biodistribution, Muscle [2, 4]: 0.47 ± 0.04 %IA/g
Biodistribution, Pancreas [2, 4]: 3.00 ± 0.58 %IA/g
Biodistribution, Spleen [2, 4]: 1.32 ± 0.20 %IA/g
Biodistribution, Stomach [2, 4]: 0.94 ± 0.15 %IA/g
Biodistribution, Blood ([2]; 4 h pi): 6.40 ± 0.75 %IA/g
Biodistribution, CCK2i4svR(+) Tumor ([2]; 4 h pi): 8.91 ± 1.59 %IA/g
Biodistribution, CCK2i4svR(-) Tumor ([2]; 4 h pi): 1.82 ± 0.25 %IA/g
Biodistribution, Femur ([2]; 4 h pi): 1.15 ± 0.10 %IA/g
Biodistribution, Heart ([2]; 4 h pi): 1.61 ± 0.23 %IA/g
Biodistribution, Intestines ([2]; 4 h pi): 9.71 ± 0.42 %IA/g
Biodistribution, Kidneys ([2]; 4 h pi): 29.55 ± 3.64 %IA/g
Biodistribution, Liver ([2]; 4 h pi): 5.42 ± 0.89 %IA/g
Biodistribution, Lungs ([2]; 4 h pi): 3.27 ± 0.46 %IA/g
Biodistribution, Muscle ([2]; 4 h pi): 0.56 ± 0.08 %IA/g
Biodistribution, Pancreas ([2]; 4 h pi): 2.99 ± 0.96 %IA/g
Biodistribution, Spleen ([2]; 4 h pi): 1.49 ± 0.14 %IA/g
Biodistribution, Stomach ([2]; 4 h pi): 1.31 ± 0.21 %IA/g
Biodistribution, Blood [2, 5]: 0.15 ± 0.02 %IA/g
Biodistribution, CCK2i4svR(+) Tumor [2, 5]: 2.92 ± 0.37 %IA/g
Biodistribution, CCK2i4svR(-) Tumor [2, 5]: 0.45 ± 0.09 %IA/g
Biodistribution, Femur [2, 5]: 0.25 ± 0.03 %IA/g
Biodistribution, Heart [2, 5]: 0.22 ± 0.03 %IA/g
Biodistribution, Intestines [2, 5]: 0.75 ± 0.06 %IA/g
Biodistribution, Kidneys [2, 5]: 11.51 ± 2.64 %IA/g
Biodistribution, Liver [2, 5]: 0.95 ± 0.12 %IA/g
Biodistribution, Lungs [2, 5]: 0.44 ± 0.07 %IA/g
Biodistribution, Muscle [2, 5]: 0.08± 0.01 %IA/g
Biodistribution, Pancreas [2, 5]: 0.30 ± 0.05 %IA/g
Biodistribution, Spleen [2, 5]: 0.56 ± 0.17 %IA/g
Biodistribution, Stomach [2, 5]: 0.35 ± 0.06 %IA/g
Biodistribution, Blood ([2]; 24 h pi): 0.13 ± 0.02 %IA/g
Biodistribution, CCK2i4svR(+) Tumor ([2]; 24 h pi): 2.78 ± 0.43 %IA/g
Biodistribution, CCK2i4svR(-) Tumor ([2]; 24 h pi): 0.41 ± 0.10 %IA/g
Biodistribution, Femur ([2]; 24 h pi): 0.24 ± 0.04 %IA/g
Biodistribution, Heart ([2]; 24 h pi): 0.22 ± 0.01 %IA/g
Biodistribution, Intestines ([2]; 24 h pi): 0.68 ± 0.15 %IA/g
Biodistribution, Kidneys ([2]; 24 h pi): 10.16 ± 2.30 %IA/g
Biodistribution, Liver ([2]; 24 h pi): 0.96 ± 0.22 %IA/g
Biodistribution, Lungs ([2]; 24 h pi): 0.60 ± 0.37 %IA/g
Biodistribution, Muscle ([2]; 24 h pi): 0.08 ± 0.01 %IA/g
Biodistribution, Pancreas ([2]; 24 h pi): 0.29 ± 0.03 %IA/g
Biodistribution, Spleen ([2]; 24 h pi): 0.51 ± 0.09 %IA/g
Biodistribution, Stomach ([2]; 24 h pi): 0.36 ± 0.14 %IA/g
SPECT/CT uptake in CCK2i4svR expressing tumors [3]: Intense uptake
SPECT/CT uptake in wtHEK293 tumors devoid of CCK2i4svR expression [3]: no uptake is evident
